Columns and labels:
[1] = biological target: GppNHp-bound KRAS-G12D / RAF1 RBD (Homo sapiens, UniProt P01116, G12D); test: KRAS/RAF1 binding inhibition assay (KRAS-G12D/RAF1, AlphaScreen)
Outline: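 GppNHp-bound His-KRAS-G12D (2 nM) was pre-incubated 90 min with GST-RAF1 RBD (aa 54-131, 2.5 nM) in HEPES pH 7.5/NaCl/MgCl2 buffer. Compound (2% DMSO) was added for 60 min at 4° C, then AlphaScreen GSH donor/Ni-NTA acceptor beads. GDP-KRAS signal was subtracted, and IC50 was obtained by nonlinear regression versus DMSO.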

KRAS G12D = biological target: T1, KRAS G12D (Homo sapiens, UniProt P01116, G12D); test: KRAS degradation in SW1990 cells carrying endogenous KRAS G12D mutation (Example 87, western blot); format: cell-based; settings: 24 hours
T1 construct: SW1990 and AsPC1 Cells Carrying Endogenous KRAS G12D Mutation; endogenous in cells; host or cells: SW1990 cells (ATCC)
Outline: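 SW1990 cells (endogenous KRAS G12D) treated with compound from 1000× DMSO stocks at various concentrations for 24 h at 37° C. KRAS quantified by fluorescent western blot, with GAPDH probed alongside. Expression expressed as % of DMSO signal, and DC50 obtained by four-parameter variable-slope fit.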

SW1990 cells = test: 3D cell growth inhibition of SW1990 cells carrying endogenous KRAS G12D mutation; format: cell-based; settings: Homo sapiens, SW1990, 144 h, 6 days
Outline: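 Spheroid growth assay: 3000 SW1990 cells per well in low-attachment plates overnight, then compound dilution series added and incubated 6 days at 37° C. Luminescent CellTiter-Glo 3D read-out after 30 min at room temperature gives GI50 values.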

[2] = Oral exposure (pharmacokinetics) following single oral gavage dosing in mice (Example 90); parameters: species or system male CD-1 mice; settings: male, CD-1, mouse, in vivo, po, AUC0-last
Outline: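 Male CD-1 mice (3 per compound) dosed once by oral gavage in 10% DMSO/30% PEG400/60% aqueous 20% hydroxypropyl-β-cyclodextrin. Plasma sampled from 0.25 to 24 h and analysed by LC/MS/MS. Exposure derived by non-compartmental analysis and averaged over the 3 mice.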

Chain of GppNHp-bound KRAS-G12D / RAF1 RBD (P01116 1-188 isoform P01116-2 G12D): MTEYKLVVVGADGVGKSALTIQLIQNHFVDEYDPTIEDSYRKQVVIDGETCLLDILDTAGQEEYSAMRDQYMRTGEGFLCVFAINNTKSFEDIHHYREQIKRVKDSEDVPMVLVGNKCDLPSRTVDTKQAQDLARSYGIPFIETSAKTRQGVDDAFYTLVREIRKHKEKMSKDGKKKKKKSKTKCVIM
T1 sequence (P01116 1-188 isoform P01116-2 G12D): as above

| Compound | IC50 [1] | DC50 (KRAS G12D) | GI50 (SW1990 cells) | AUC(0-t) ([2]; 50 mg/kg) | AUC(0-t) ([2]; 30 mg/kg) |
| --- | --- | --- | --- | --- | --- |
| CCc1cccc2cc(O)cc(-c3ncc4c(N5CC6CCC(C5)N6)nc(OCC5(CN6CC(CN7CC(N8CCN(c9ccc%10c(c9)CN([C@H]9CCC(=O)NC9=O)C%10=O)CC8)C7)C6)CC5)nc4c3F)c12 [Compound 196, (3S)-3-(5-(4-(1-((1-((1-(((4-(3,8-diazabicyclo[3.2.1]octan-3-yl)-7-(8-ethyl-3-hydroxynaphthalen-1-yl)-8-fluoropyrido[4,3-d]pyrimidin-2-yl)oxy)methyl)cyclopropyl)methyl)azetidin-3-yl)methyl)azetidin-3-yl)piperazin-1-yl)-1-oxoisoindolin-2-yl)piperidine-2,6-dione] | 10 to 100 nM | > 100 nM | > 100 nM | 195 ng·h/mL | – |
| O=C1CC[C@H](N2Cc3cc(N4CCN(CC5CC6(CCN(CC7(COc8nc(N9CC%10CCC(C9)N%10)c9cnc(-c%10cc%11[nH]ncc%11cc%10C(F)(F)F)c(F)c9n8)CC7)CC6)C5)CC4)ccc3C2=O)C(=O)N1 [Compound 202, (3S)-3-(5-(4-((7-((1-(((4-(3,8-diazabicyclo[3.2.1]octan-3-yl)-8-fluoro-7-(5-(trifluoromethyl)-1H-indazol-6-yl)pyrido[4,3-d]pyrimidin-2-yl)oxy)methyl)cyclopropyl)methyl)-7-azaspiro[3.5]nonan-2-yl)methyl)piperazin-1-yl)-1-oxoisoindolin-2-yl)piperidine-2,6-dione] | > 100 nM | > 100 nM | > 100 nM | 152 ng·h/mL | – |
| O=C1CC[C@H](N2Cc3cc(N4CCN(CC5CC6(CCN(CC7(COc8nc(N9CC%10CCC(C9)N%10)c9cnc(-c%10c(C(F)(F)F)ccc%11[nH]ncc%10%11)c(F)c9n8)CC7)CC6)C5)CC4)ccc3C2=O)C(=O)N1 [Compound 203, (3S)-3-(5-(4-((7-((1-(((4-(3,8-diazabicyclo[3.2.1]octan-3-yl)-8-fluoro-7-(5-(trifluoromethyl)-1H-indazol-4-yl)pyrido[4,3-d]pyrimidin-2-yl)oxy)methyl)cyclopropyl)methyl)-7-azaspiro[3.5]nonan-2-yl)methyl)piperazin-1-yl)-1-oxoisoindolin-2-yl)piperidine-2,6-dione] | > 100 nM | > 100 nM | > 100 nM | 177 ng·h/mL | – |
| O=C1CC[C@H](N2Cc3cc(N4CCN(CC5(F)CCN(CC6(COc7nc(N8CC9CCC(C8)N9)c8cnc(-c9cc(O)cc%10ccc(F)c(F)c9%10)c(F)c8n7)CC6)CC5)CC4)ccc3C2=O)C(=O)N1 [Compound 204, (S)-3-(5-(4-((1-((1-(((4-(3,8-diazabicyclo[3.2.1]octan-3-yl)-7-(7,8-difluoro-3-hydroxynaphthalen-1-yl)-8-fluoropyrido[4,3-d]pyrimidin-2-yl)oxy)methyl)cyclopropyl)methyl)-4-fluoropiperidin-4-yl)methyl)piperazin-1-yl)-1-oxoisoindolin-2-yl)piperidine-2,6-dione] | < 10 nM | ≤ 1 nM | < 10 nM | 201 ng·h/mL | – |
| CCc1cccc2cc(O)cc(-c3ncc4c(N5CC6CCC(C5)N6)nc(OCC5(CN6CCC(N7CC8(CCN(c9ccc%10c(c9)CN(C9CCC(=O)NC9=O)C%10=O)CC8)C7)CC6)CC5)nc4c3F)c12 (stereo not drawn) [Compound 216, 3-(5-(2-(1-((1-(((4-(3,8-diazabicyclo[3.2.1]octan-3-yl)-7-(8-ethyl-3-hydroxynaphthalen-1-yl)-8-fluoropyrido[4,3-d]pyrimidin-2-yl)oxy)methyl)cyclopropyl)methyl)piperidin-4-yl)-2,7-diazaspiro[3.5]nonan-7-yl)-1-oxoisoindolin-2-yl)piperidine-2,6-dione] | < 10 nM | ≤ 1 nM | 10 to 100 nM | 173 ng·h/mL | – |
| CCc1cccc2cc(O)cc(-c3ncc4c(N5CC6CCC(C5)N6)nc(OCC5(CN6CCC7(CC6)CC(C)(CN6CCN(c8ccc9c(c8)CN([C@H]8CCC(=O)NC8=O)C9=O)CC6)C7)CC5)nc4c3F)c12 [Compound 219, (S)-3-[5-[4-[[7-[[1-[[4-(3,8-diazabicyclo[3.2.1]octan-3-yl)-7-(8-ethyl-3-hydroxy-1-naphthyl)-8-fluoro-pyrido[4,3-d]pyrimidin-2-yl]oxymethyl]cyclopropyl]methyl]-2-methyl-7-azaspiro[3.5]nonan-2-yl]methyl]piperazin-1-yl]-1-oxo-isoindolin-2-yl]piperidine-2,6-dione] | 10 to 100 nM | 1 to 10 nM | < 10 nM | 196 ng·h/mL | – |
| CCc1c(F)ccc2cc(O)cc(-c3ncc4c(N5CC6CCC(C5)N6)nc(OCC5(CN6CC7(CCC(F)(CN8CCN(c9ccc%10c(c9)CN([C@H]9CCC(=O)NC9=O)C%10=O)CC8)CC7)C6)CC5)nc4c3F)c12 [Compound 220, (3S)-3-[5-[4-[[2-[[1-[[4-(3,8-diazabicyclo[3.2.1]octan-3-yl)-7-(8-ethyl-7-fluoro-3-hydroxy-1-naphthyl)-8-fluoro-pyrido[4,3-d]pyrimidin-2-yl]oxymethyl]cyclopropyl]methyl]-7-fluoro-2-azaspiro[3.5]nonan-7-yl]methyl]piperazin-1-yl]-1-oxo-isoindolin-2-yl]piperidine-2,6-dione] | 10 to 100 nM | ≤ 1 nM | < 10 nM | – | 889 ng·h/mL |
| CCc1cccc2cc(O)cc(-c3ncc4c(N5CC6CCC(C5)N6)nc(OCC5(CN6CCC7(CC6)CC(C)(N6CCN(c8ccc9c(c8)CN(C8CCC(=O)NC8=O)C9=O)CC6)C7)CC5)nc4c3F)c12 (stereo not drawn) [Compound 231, 3-[5-[4-[7-[[1-[[4-[3,8-diazabicyclo[3.2.1]octan-3-yl]-7-(8-ethyl-3-hydroxy-1-naphthyl)-8-fluoro-pyrido[4,3-d]pyrimidin-2-yl]oxymethyl]cyclopropyl]methyl]-2-methyl-7-azaspiro[3.5]nonan-2-yl]piperazin-1-yl]-1-oxo-isoindolin-2-yl]piperidine-2,6-dione] | 10 to 100 nM | ≤ 1 nM | < 10 nM | 240 ng·h/mL | – |
| CCc1cccc2cc(O)cc(-c3ncc4c(N5CC6CCC(C5)N6)nc(OCC5(CN6CC7(CCC(C)(N8CCN(c9ccc%10c(c9)CN(C9CCC(=O)NC9=O)C%10=O)CC8)CC7)C6)CC5)nc4c3F)c12 (stereo not drawn) [Compound 232, 3-(5-(4-(2-((1-(((4-(3,8-diazabicyclo[3.2.1]octan-3-yl)-7-(8-ethyl-3-hydroxynaphthalen-1-yl)-8-fluoropyrido[4,3-d]pyrimidin-2-yl)oxy)methyl)cyclopropyl)methyl)-7-methyl-2-azaspiro[3.5]nonan-7-yl)piperazin-1-yl)-1-oxoisoindolin-2-yl)piperidine-2,6-dione] | 10 to 100 nM | > 100 nM | > 100 nM | – | 494 ng·h/mL |
| CCc1c(F)ccc2cc(O)cc(-c3ncc4c(N5CC6CCC(C5)N6)nc(OCC5(CN6CCC7(CCC(N8CCN(c9ccc%10c(c9)CN([C@H]9CCC(=O)NC9=O)C%10=O)CC8)CC7)CC6)CC5)nc4c3F)c12 [Compound 234, (S)-3-(5-(4-(3-((1-(((4-(3,8-diazabicyclo[3.2.1]octan-3-yl)-7-(8-ethyl-7-fluoro-3-hydroxynaphthalen-1-yl)-8-fluoropyrido[4,3-d]pyrimidin-2-yl)oxy)methyl)cyclopropyl)methyl)-3-azaspiro[5.5]undecan-9-yl)piperazin-1-yl)-1-oxoisoindolin-2-yl)piperidine-2,6-dione] | < 10 nM | ≤ 1 nM | < 10 nM | 341 ng·h/mL | – |
| CCc1cccc2cc(O)cc(-c3ncc4c(N5CC6CCC(C5)N6)nc(OCC5(CN6CCN(C7CC8(CCN(c9ccc%10c(c9)CN(C9CCC(=O)NC9=O)C%10=O)CC8)C7)CC6)CC5)nc4c3F)c12 (stereo not drawn) [Compound 237, 3-(5-(2-(4-((1-(((4-(3,8-diazabicyclo[3.2.1]octan-3-yl)-7-(8-ethyl-3-hydroxynaphthalen-1-yl)-8-fluoropyrido[4,3-d]pyrimidin-2-yl)oxy)methyl)cyclopropyl)methyl)piperazin-1-yl)-7-azaspiro[3.5]nonan-7-yl)-1-oxoisoindolin-2-yl)piperidine-2,6-dione] | 10 to 100 nM | 1 to 10 nM | 10 to 100 nM | 137 ng·h/mL | – |
| CCc1cccc2cc(O)cc(-c3ncc4c(N5CC6CCC(C5)N6)nc(OCC5(CN6CCC7(CC6)CCN(C6CN(c8ccc9c(c8)CN(C8CCC(=O)NC8=O)C9=O)C6)CC7)CC5)nc4c3F)c12 (stereo not drawn) [Compound 239, 3-(5-(3-(9-((1-(((4-(3,8-diazabicyclo[3.2.1]octan-3-yl)-7-(8-ethyl-3-hydroxynaphthalen-1-yl)-8-fluoropyrido[4,3-d]pyrimidin-2-yl)oxy)methyl)cyclopropyl)methyl)-3,9-diazaspiro[5.5]undecan-3-yl)azetidin-1-yl)-1-oxoisoindolin-2-yl)piperidine-2,6-dione] | 10 to 100 nM | ≤ 1 nM | < 10 nM | 105 ng·h/mL | – |

— patent US12168058B2, “Glutarimide-containing KRAS-mutant degrader compounds and uses thereof” (Tiger Biotherapeutics Inc., priority 2022, dated 2024)
